What follows are compounds tested on NCI-H292 lung cancer cells (assay: FDA drug screening, complete media vs cholesterol-free media without statin (TABLE 1)). Details: not given.
Type: cell-based, human
Compound `N=C(N)NCCCC(N)C(=O)O` (racemic) [DL-Arginine] has a Cholesterol-free of 1.525, a Complete of 1.476 and a Difference of −0.05.

Same assay, conditions: Complete minus Cholesterol-free; >0 enhanced anti-cancer activity, about 0 neutral, <0 antagonist
In the case of `C[C@H]1C[C@@H]2[C@H]([C@@H](O)C[C@@]3(C)[C@H]2CC[C@]3(O)C(=O)COC(=O)CCC(=O)[O-])[C@@]2(C)C=CC(=O)C=C12.[Na+]`, the Difference is reported as 0.02. `O=C(O)CC(O)(CC(=O)O)C(=O)O` gave a Difference of −0.20. With `O=C(O)CN(CCN(CC(=O)O)CC(=O)O)CC(=O)O` the Difference was −0.27. `CC(C)NCC(O)COc1ccc(COCCOC(C)C)cc1.CC(C)NCC(O)COc1ccc(COCCOC(C)C)cc1.O=C(O)/C=C/C(=O)O` (racemic) [(±)-Bisoprolol (hemifumarate)] was tested, and the Difference was −0.20. In the case of `O=C(c1ccc(F)c(F)c1Nc1ccc(I)cc1F)N1CC(O)([C@@H]2CCCCN2)C1` (racemic) [Cobimetinib (racemate)], the Difference is reported as −0.02. Compound `CSCCC(N)C(=O)O` (racemic) [DL-Methionine] has a Difference of −0.06.

Same assay, conditions: Complete minus Cholesterol-free; […]
`CCN(CC)C(=O)C1(c2ccccc2)CC1CN.Cl` (stereo not drawn) [Milnacipran ((1S-cis)hydrochloride)] gave a Difference of −0.18.

Same assay, conditions: NCI-H292 cells, FDA drug library screen, cholesterol-free media without statin
In the case of `CCN(CC)C(=O)C1(c2ccccc2)CC1CN.Cl` (stereo not drawn) [Milnacipran ((1S-cis)hydrochloride)], the Cholesterol-free is reported as 1.07.

Same assay, conditions: NCI-H292 cells, FDA drug library screen, complete media
`CCN(CC)C(=O)C1(c2ccccc2)CC1CN.Cl` (stereo not drawn) [Milnacipran ((1S-cis)hydrochloride)] showed a Complete of 0.894.

Same assay, conditions: NCI-H292 cells, cholesterol-free media without statin
With `O=C(O)CC(O)(CC(=O)O)C(=O)O` the Cholesterol-free was 1.776. `O=C(O)CN(CCN(CC(=O)O)CC(=O)O)CC(=O)O` gave a Cholesterol-free of 1.665. In the case of `CC(C)NCC(O)COc1ccc(COCCOC(C)C)cc1.CC(C)NCC(O)COc1ccc(COCCOC(C)C)cc1.O=C(O)/C=C/C(=O)O` (racemic) [(±)-Bisoprolol (hemifumarate)], the Cholesterol-free is reported as 1.077.

Same assay, conditions: NCI-H292 cells, cholesterol-free media without statin, FDA drug library screen
With `C[C@H]1C[C@@H]2[C@H]([C@@H](O)C[C@@]3(C)[C@H]2CC[C@]3(O)C(=O)COC(=O)CCC(=O)[O-])[C@@]2(C)C=CC(=O)C=C12.[Na+]` the Cholesterol-free was 0.6071. Compound `O=C(c1ccc(F)c(F)c1Nc1ccc(I)cc1F)N1CC(O)([C@@H]2CCCCN2)C1` (racemic) [Cobimetinib (racemate)] has a Cholesterol-free of 0.2982. `CSCCC(N)C(=O)O` (racemic) [DL-Methionine] was tested, and the Cholesterol-free was 1.381.

Same assay, conditions: NCI-H292 cells, complete media
In the case of `O=C(O)CC(O)(CC(=O)O)C(=O)O`, the Complete is reported as 1.574. In the case of `O=C(O)CN(CCN(CC(=O)O)CC(=O)O)CC(=O)O`, the Complete is reported as 1.397. Work on `CC(C)NCC(O)COc1ccc(COCCOC(C)C)cc1.CC(C)NCC(O)COc1ccc(COCCOC(C)C)cc1.O=C(O)/C=C/C(=O)O` (racemic) [(±)-Bisoprolol (hemifumarate)] yielded a Complete of 0.8813.

Same assay, conditions: NCI-H292 cells, complete media, FDA drug library screen
`C[C@H]1C[C@@H]2[C@H]([C@@H](O)C[C@@]3(C)[C@H]2CC[C@]3(O)C(=O)COC(=O)CCC(=O)[O-])[C@@]2(C)C=CC(=O)C=C12.[Na+]` was tested, and the Complete was 0.6313. With `O=C(c1ccc(F)c(F)c1Nc1ccc(I)cc1F)N1CC(O)([C@@H]2CCCCN2)C1` (racemic) [Cobimetinib (racemate)] the Complete was 0.2751. With `CSCCC(N)C(=O)O` (racemic) [DL-Methionine] the Complete was 1.325.

What follows are compounds tested on NCI-H292 lung cancer cells (assay: FDA drug screening, complete media vs cholesterol-free media with simvastatin (TABLE 2)). Details: not given.
Type: cell-based, human
In the case of `N=C(N)NCCCC(N)C(=O)O` (racemic) [DL-Arginine], the “Cholesterol-free media + simvastatin (0.04 μM)” value is reported as 0.9889, the “Complete Media” value is reported as 0.9776 and the Difference is reported as −0.01.

Same assay, conditions: NCI-H292 cells, FDA drug library screen, cholesterol-free media with simvastatin 0.04 μM
In the case of `C[C@H]1C[C@@H]2[C@H]([C@@H](O)C[C@@]3(C)[C@H]2CC[C@]3(O)C(=O)COC(=O)CCC(=O)[O-])[C@@]2(C)C=CC(=O)C=C12.[Na+]`, the “Cholesterol-free media + simvastatin (0.04 μM)” value is reported as 0.7536. In the case of `CC(C)NCC(O)COc1ccc(COCCOC(C)C)cc1.CC(C)NCC(O)COc1ccc(COCCOC(C)C)cc1.O=C(O)/C=C/C(=O)O` (racemic) [(±)-Bisoprolol (hemifumarate)], the “Cholesterol-free media + simvastatin (0.04 μM)” value is reported as 0.9429. `O=C(c1ccc(F)c(F)c1Nc1ccc(I)cc1F)N1CC(O)([C@@H]2CCCCN2)C1` (racemic) [Cobimetinib (racemate)] was tested, and the “Cholesterol-free media + simvastatin (0.04 μM)” value was 0.2662.

Same assay, conditions: NCI-H292 cells, FDA drug library screen, complete media
`C[C@H]1C[C@@H]2[C@H]([C@@H](O)C[C@@]3(C)[C@H]2CC[C@]3(O)C(=O)COC(=O)CCC(=O)[O-])[C@@]2(C)C=CC(=O)C=C12.[Na+]` was tested, and the “Complete Media” value was 0.682. With `O=C(c1ccc(F)c(F)c1Nc1ccc(I)cc1F)N1CC(O)([C@@H]2CCCCN2)C1` (racemic) [Cobimetinib (racemate)] the “Complete Media” value was 0.405.

Same assay, conditions: NCI-H292 cells, cholesterol-free media with simvastatin 0.04 μM; cell growth value in FDA drug screen
In the case of `O=C(O)CC(O)(CC(=O)O)C(=O)O`, the “Cholesterol-free media + simvastatin (0.04 μM)” value is reported as 0.864. For `O=C(O)CN(CCN(CC(=O)O)CC(=O)O)CC(=O)O`, the “Cholesterol-free media + simvastatin (0.04 μM)” value was 0.8557. `CSCCC(N)C(=O)O` (racemic) [DL-Methionine] was tested, and the “Cholesterol-free media + simvastatin (0.04 μM)” value was 0.9866.

Same assay, conditions: NCI-H292 cells, complete media; cell growth value in FDA drug screen
For `O=C(O)CC(O)(CC(=O)O)C(=O)O`, the “Complete Media” value was 0.9089. In the case of `O=C(O)CN(CCN(CC(=O)O)CC(=O)O)CC(=O)O`, the “Complete Media” value is reported as 0.9311. In the case of `CSCCC(N)C(=O)O` (racemic) [DL-Methionine], the “Complete Media” value is reported as 1.007.

Same assay, conditions: complete media minus cholesterol-free media + simvastatin; >0 enhanced anti-cancer activity, about 0 neutral, <0 antagonist
For `O=C(O)CC(O)(CC(=O)O)C(=O)O`, the Difference was 0.04. `O=C(O)CN(CCN(CC(=O)O)CC(=O)O)CC(=O)O` showed a Difference of 0.08. With `CC(C)NCC(O)COc1ccc(COCCOC(C)C)cc1.CC(C)NCC(O)COc1ccc(COCCOC(C)C)cc1.O=C(O)/C=C/C(=O)O` (racemic) [(±)-Bisoprolol (hemifumarate)] the Difference was 0.21. Compound `O=C(c1ccc(F)c(F)c1Nc1ccc(I)cc1F)N1CC(O)([C@@H]2CCCCN2)C1` (racemic) [Cobimetinib (racemate)] has a Difference of 0.14. `CSCCC(N)C(=O)O` (racemic) [DL-Methionine] showed a Difference of 0.02.

Same assay, conditions: complete media vs cholesterol-free media + simvastatin (0.04 μM); >0 enhanced anti-cancer activity, about 0 neutral, <0 antagonist
`C[C@H]1C[C@@H]2[C@H]([C@@H](O)C[C@@]3(C)[C@H]2CC[C@]3(O)C(=O)COC(=O)CCC(=O)[O-])[C@@]2(C)C=CC(=O)C=C12.[Na+]` gave a Difference of −0.07.

From patent publication US20250144067A1, “PERSONALIZED STARVATION THERAPY FOR CANCER” (Faeth Therapeutics, Inc., priority 2021, published 2025)
